Entries after “also recorded” stand apart in the source; their conditions may differ.
What was measured:
β cell CaV channels [1] = assay: Perforated whole-cell patch-clamp of Ca2+ currents in RINm5F cells; format: cell-based, rat; conditions: for effect on ApoCIII-induced hyperactivation of β cell CaV channels (enhancement of whole-cell Ca2+ currents): ApoCIII 20 μg/ml overnight with inhibitor cotreatment or after siRNA pretransfection; for whole-cell Ca2+ current density under basal conditions, inhibitor(s) versus vehicle: in the absence of ApoCIII; for whole-cell Ca2+ current density, ApoCIII alone compared with ApoCIII plus inhibitor(s): ApoCIII 20 μg/ml
Experimental: (§1) Islets of Langerhans were isolated from adult male and female mice and dispersed into single β cells. RINm5F cells at about 70% confluency were trypsinized. The resultant suspension of cells was seeded into Petri dishes or 12-well plates. The cells were cultivated in RPMI 1640 medium supplemented with 10% fetal bovine serum, 2 mM L-glutamine, and 100 U/100 μg/ml penicillin/streptomycin (Invitrogen, Carlsbad, Calif.) and maintained at 37° C. in a humidified 5% CO2 incubator. They were grown overnight and then subjected to siRNA transfection. For patch-clamp analysis, cells underwent overnight treatment with ApoCIII, the PKA inhibitor H-89 (Calbiochem, La Jolla, Calif.), the PKC inhibitor calphostin C (Calbiochem), the Src kinase inhibitor PP2 (Calbiochem) and the CaV1 channel blocker nimodipine (Calbiochem) in RPMI medium at final concentrations of 20 μg/ml, 0.5 μM, 0.1 μM, 0.1 μM and 5 μM, respectively. ApoCIII was dissolved in 0.1% triflouroacetic acid (TFA) to make a stock solution of 1 mg/ml, whereas H-89, calphostin C, PP2 and nimodipine were dissolved in dimethyl sulfoxide (DMSO) to form stock solutions of 5 mM, 1 mM, 1 mM and 10 mM, respectively. 0.002% TFA and/or 0.03% DMSO were used as vehicle controls.
Two pairs of 21-mer siRNA duplexes targeting the rat β1 integrin (β1 integrin siRNA #1, ID127971 and (31 integrin siRNA #2, ID127972) and SRBI (ID128929) were designed and chemically synthesized by Applied Biosystems/Ambion (Austin, Tex.). Their sequences were subjected to BLAST search to ensure their specificity. Silencer® Select Negative Control siRNA (4390843), not targeting any gene product, and Silencer® Select GAPDH Positive Control siRNA (4390849), efficiently silencing GAPDH in human, mouse, and rat cells, were purchased from Applied Biosystems/Ambion (Austin, Tex.). RINm5F cells were reversely transfected with Lipofectamine™ RNAiMAX. Briefly, negative control siRNA, β1 integrin siRNA #1, β1 integrin siRNA #2 or SRBI siRNA was mixed with Lipofectamine™ RNAiMAX followed by 20-min incubation at room temperature. Subsequently, cells were added to the siRNA/Lipofectamine™ RNAiMAX mixtures followed by gentle agitation and kept at 37° C. in a humidified 5% CO2 incubator. After 72 h, the transfected cells were grown to about 70% confluency and subjected to immunoblot assay or different treatments.
(§2) Mouse islet cells and RINm5F cells following different treatments were subjected to single channel and whole-cell patch-clamp measurements. Cell-attached and perforated whole-cell patch-clamp configurations were employed. Electrodes were made from borosilicate glass capillaries, fire-polished and coated with Sylgard close to their tips. Some of them were filled with a solution containing (in mM) 110 BaCl2, 10 TEA-Cl, and 5 HEPES (pH 7.4 with Ba(OH)2) for single channel measurements. Others were filled with a solution composed of (in mM) 76 Cs2SO4, 1 MgCl2, 10 KCl, 10 NaCl, and 5 HEPES (pH 7.35 with CsOH), as well as amphotericin B (0.24 mg/ml) for whole-cell current recordings. Electrode resistance ranged between 4 and 6 MΩ when they were filled with electrode solutions and immersed in bath solutions. The electrode offset potential was corrected in bath solutions prior to gigaseal formation. Single-channel recordings were performed with cells bathed in a depolarizing external recording solution, containing (in mM) 125 KCl, 30 KOH, 10 EGTA, 2 CaCl2, 1 MgCl2, and 5 HEPES-KOH (pH 7.15). This solution was used to bring the intracellular potential to 0 mV. For perforated whole-cell current measurements, the cells were bathed in a solution containing (in mM) 138 NaCl, 5.6 KCl, 1.2 MgCl2, 10 CaCl2, 5 HEPES (pH 7.4). Single channel and whole-cell currents were recorded with an Axopatch 200B amplifier (Molecular Devices, Foster City, Calif.) and an EPC-9 patch clamp amplifier (HEKA Elektronik, Lambrecht/Pfalz, Germany), respectively, at room temperature (about 22° C.). […]

SRBI [2] = molecular target: T1, SRBI (Homo sapiens, UniProt Q8WTV0); conditions: cited from earlier work
T1 sequence (Q8WTV0 1-509 isoform Q8WTV0-2): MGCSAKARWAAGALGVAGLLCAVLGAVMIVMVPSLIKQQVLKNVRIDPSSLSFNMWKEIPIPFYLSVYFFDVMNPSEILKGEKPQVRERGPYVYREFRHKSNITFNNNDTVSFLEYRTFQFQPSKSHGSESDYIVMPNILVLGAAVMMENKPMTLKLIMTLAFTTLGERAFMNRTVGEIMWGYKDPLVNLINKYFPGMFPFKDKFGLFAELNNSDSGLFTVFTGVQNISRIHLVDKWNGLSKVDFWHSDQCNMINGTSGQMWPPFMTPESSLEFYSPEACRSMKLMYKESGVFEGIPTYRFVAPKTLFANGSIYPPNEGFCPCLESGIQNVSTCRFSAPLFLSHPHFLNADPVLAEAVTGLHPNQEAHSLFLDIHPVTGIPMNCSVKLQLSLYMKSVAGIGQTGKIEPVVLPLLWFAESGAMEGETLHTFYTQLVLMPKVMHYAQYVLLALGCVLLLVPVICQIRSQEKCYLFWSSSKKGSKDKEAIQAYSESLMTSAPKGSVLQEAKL

β cell CaV channels [3] = conditions: mouse islet β cell; previous work; cited from earlier work
CaV1.2 = assay: Immunoblot of CaV1.2 subunits in RINm5F cell homogenates; format: cell-based, rat; conditions: overnight ApoCIII
Experimental: (§3) Islets of Langerhans were isolated from adult male and female mice and dispersed into single β cells. RINm5F cells at about 70% confluency were trypsinized. The resultant suspension of cells was seeded into Petri dishes or 12-well plates. The cells were cultivated in RPMI 1640 medium supplemented with 10% fetal bovine serum, 2 mM L-glutamine, and 100 U/100 μg/ml penicillin/streptomycin (Invitrogen, Carlsbad, Calif.) and maintained at 37° C. in a humidified 5% CO2 incubator. They were grown overnight and then subjected to siRNA transfection. […]
(§4) RINm5F cells following different treatments were lysed in a lysis buffer (pH 7.5) consisting of 50 mM HEPES, 150 mM NaCl, 1 mM EGTA, 1 mM EDTA, 10% glycerol, 1% triton X-100, 1 mM PMSF and a protease inhibitor cocktail (Roche Diagnostics, Mannheim, Germany). […] The protein concentration of the resulting samples was determined with Bio-Rad protein assay reagent (Bio-Rad, Hercules, Calif.). […]
(§5) All data are presented as mean±SEM. Statistical significance was determined by one-way ANOVA, followed by least significant difference (LSD) test. […]

CaV1 channels [4] = assay: Cell-attached single channel patch-clamp of unitary CaV1 channel currents in mouse islet β cells; format: cell-based; conditions: ApoCIII 20 μg/ml overnight versus control vehicle
Experimental: as §1
as §2, with “For perforated whole-cell current measurements, the cells were bathed in a solution containing (in mM) 138 NaCl, 5.6 KCl, 1.2 MgCl2, 10 CaCl2, 5 HEPES (pH 7.4).” left out
as §5

CaV1 channels [5] = assay: Cell-attached single channel patch-clamp of unitary CaV1 channel currents in RINm5F cells; format: cell-based, rat; conditions: ApoCIII 20 μg/ml overnight versus vehicle solution
Experimental: as §1
as §2, with “For perforated whole-cell current measurements, the cells were bathed in a solution containing (in mM) 138 NaCl, 5.6 KCl, 1.2 MgCl2, 10 CaCl2, 5 HEPES (pH 7.4).” left out
as §5

CaV1.3 = assay: Immunoblot of CaV1.3 subunits in RINm5F cell homogenates; format: cell-based, rat; conditions: overnight ApoCIII
Experimental: as §3, §4, §5

SRBI [6] = conditions: cited from earlier work
[7] = overnight, H-89 0.5 μM, calphostin C 0.1 μM, PP2 0.1 μM

## O=S(=O)(NCCNC/C=C/c1ccc(Br)cc1)c1cccc2cnccc12 [H-89]
β cell CaV channels [1]
  effect on ApoCIII-induced hyperactivation of β cell CaV channels (enhancement of whole-cell Ca2+ currents): marginally reduced
  whole-cell Ca2+ current density under basal conditions, inhibitor(s) versus vehicle: did not significantly influence
β cell CaV channels [1]; [7]
  whole-cell Ca2+ current density, ApoCIII alone compared with ApoCIII plus inhibitor(s): did not significantly differ
β cell CaV channels [1]; overnight, nimodipine 5 μM (control = Nim alone), H-89 0.5 μM, calphostin C 0.1 μM, PP2 0.1 μM
  whole-cell Ca2+ current density, ApoCIII plus inhibitor(s) compared with control cells: did not significantly differ

## CC(C)(C)n1nc(-c2ccc(Cl)cc2)c2c(N)ncnc21 [PP2]
β cell CaV channels [1]
  effect on ApoCIII-induced hyperactivation of β cell CaV channels (enhancement of whole-cell Ca2+ currents): tendency to decrease
  whole-cell Ca2+ current density under basal conditions, inhibitor(s) versus vehicle: similar
β cell CaV channels [1]; voltage range 20-40 mV
  whole-cell Ca2+ currents, ApoCIII and PP2 cotreatment versus vehicle-treated control cells: significantly larger

## CC(C)(C)OC(=O)N1CCN(c2ccc(NC(=O)c3cc([N+](=O)[O-])ccc3Cl)cc2)CC1 [R-138329, N-[4-(4-tert-Butoxycarbonylpiperazin-1-yl)phenyl]-(2-chloro-5-nitrophenyl)carboxamide]
SRBI [2]
  SRBI receptor activity: block

## ApoCIII: protein comprising the amino acid sequence shown in SEQ ID NO:2 (Human), SEQ ID NO:4 (Rat) or SEQ ID NO:6 (Macaque)
β cell CaV channels [1]; no voltage range printed (FIG. 4d)
  whole-cell Ca2+ current density, ApoCIII group versus control group: Significantly higher
β cell CaV channels [1]; voltage range 10-50 mV
  whole-cell Ca2+ current density, ApoCIII-treated versus vehicle-treated control cells: significantly higher; also recorded: increased significantly; also recorded: significantly elevated; also recorded: significantly increased
β cell CaV channels [1]; voltage range from 10 to 30 mV
  whole-cell Ca2+ current density, ApoCIII group versus control group: significantly higher
β cell CaV channels [3]
  whole-cell Ca2+ currents after ApoCIII incubation: significantly enhances
CaV1.2
  relative abundance of CaV1.2 subunits, ApoCIII versus vehicle incubation: no significant difference
CaV1 channels [4]
  mean closed time of unitary CaV1 channels: significantly shorter
  mean open time of unitary CaV1 channels: significantly greater
  open probability of unitary CaV1 channels: significantly greater
CaV1 channels [4]; plasma membrane patches
  average number of unitary CaV1 channels: significantly greater
CaV1 channels [5]
  channel number of CaV1 channels: significantly increased
  mean closed time of CaV1 channels: shortened
  mean open time of CaV1 channels: prolonged
  open probability of CaV1 channels: elevated
CaV1.3
  relative abundance of CaV1.3 subunits, ApoCIII versus vehicle incubation: no significant difference

## calphostin C
β cell CaV channels [1]
  effect on ApoCIII-induced hyperactivation of β cell CaV channels (enhancement of whole-cell Ca2+ currents): does not affect
  whole-cell Ca2+ current density under basal conditions, inhibitor(s) versus vehicle: similar
β cell CaV channels [1]; [7]
  whole-cell Ca2+ current density, ApoCIII alone compared with ApoCIII plus inhibitor(s): no difference
β cell CaV channels [1]; voltage range from 20 to 50 mV
  whole-cell Ca2+ current density, ApoCIII/CalpC versus vehicle-treated control cells: increased significantly

## interferon alpha
SRBI [6]
  SRBI expression: inhibit

Source: patent US9068971B2, “Methods for treating and/or limiting development of diabetes” (BioCrine AB, priority 2012, dated 2015)
